Experimental data reported in patent publication US8592421B2, “Cyclic bioisosters of purine system derivatives and a pharmaceutical composition based thereon” (priority 2003, dated 2013).

What was measured:
[1] = Chronic toxicity of suppositories: indexes of peripheral blood; type: in vivo, rats; set-up: Thrombocytes: unit not given here
[2] = system: plasma hemostasis; assay: Partial activated thromboplastin time (PATT) after intravenous administration; type: in vivo, rabbit; conditions: for effect on the PATT: doses 15.0, 30.0, 60.0 mg/kg
Procedure: The static parameters of the blood and plasma coagulation (partial activated thromboplastin time, thrombin time, maximum coagulation activity (test for auto coagulation) were determined using the Behnk Electronic coagulometer (Germany). The operating principle of this instrument is based on the fact that the formed blood clot breaks the contacts of the pulse counter in the flask-pin circuit, said pin permanently oscillating in a vertical plane. The moment of formation of the clot is registered by stopping the stop watch hand.
The measurements were effected at a constant temperature of 37° C. maintained by a temperature control unit.

[3] = 15.0 mg/kg intravenously, after 15 minutes, control 37.0 ± 0.2
[4] = 15.0 mg/kg intravenously, after 30 minutes, control 37.0 ± 0.2
[5] = 15.0 mg/kg intravenously, after 60 minutes, control 37.0 ± 0.2
[6] = 15.0 mg/kg intravenously, after 120 minutes, control 37.0 ± 0.2
[7] = 30.0 mg/kg intravenously, after 15 minutes, control 33.3 ± 0.8
[8] = 30.0 mg/kg intravenously, after 30 minutes, control 33.3 ± 0.8
[9] = 30.0 mg/kg intravenously, after 60 minutes, control 33.3 ± 0.8
[10] = 30.0 mg/kg intravenously, after 120 minutes, control 33.3 ± 0.8
[11] = 60.0 mg/kg intravenously, after 15 minutes, control 32.5 ± 0.3
[12] = 60.0 mg/kg intravenously, after 30 minutes, control 32.5 ± 0.3
[13] = 60.0 mg/kg intravenously, after 60 minutes, control 32.5 ± 0.3
[14] = 60.0 mg/kg intravenously, after 120 minutes, control 32.5 ± 0.3
[15] = male rats, suppositories rectally, 50 mg/kg, 1 month/2 months (one value given), control 0
[16] = male rats, suppositories rectally, 500 mg/kg, 1 month/2 months (one value given), control 0

Nc1ccnc2c(=O)n([C@@H]3O[C@H](CO)[C@@H](O)[C@H]3O)[nH]c(=O)c12 [Compound 2, 4-amino-7-(β-D-ribofuranosile)pyrido[2,3-d]-6H-pyridazine-5,8-dione]
Average volume of erythrocytes ([1]; rat, in vivo, 50 mg/kg): 83.4 ± 1.4 Mkm^3
Basophiles ([1]; rat, in vivo, 50 mg/kg): 0%
Juveniles ([1]; rat, in vivo, 50 mg/kg): 0%
Reticulocytes ([1]; rat, in vivo, 50 mg/kg): 2.8 ± 0.2/2.8 ± 0.2%
Average volume of erythrocytes ([1]; rat, in vivo, 500 mg/kg): 85.2 ± 1.2 Mkm^3
Basophiles ([1]; rat, in vivo, 500 mg/kg): 0%
Juveniles ([1]; rat, in vivo, 500 mg/kg): 0%
PATT, T [2, 3]: 37.0 ± 0.1 s
PATT, T [2, 4]: 37.0 ± 0.2 s
PATT, T [2, 5]: 36.9 ± 0.1 s
PATT, T [2, 6]: 37.0 ± 0.3 s
PATT, T [2, 7]: 32.7 ± 0.5 s
PATT, T [2, 8]: 32.0 ± 0.1 s
PATT, T [2, 9]: 32.2 ± 0.1 s
PATT, T [2, 10]: 32.1 ± 0.2 s
PATT, T [2, 11]: 32.3 ± 0.2 s
PATT, T [2, 12]: 32.4 ± 0.1 s
PATT, T [2, 13]: 32.3 ± 0.1 s
PATT, T [2, 14]: 32.4 ± 0.1 s
effect on the PATT [2]: do not affect the PATT

Nc1cnc2c(=O)n([C@@H]3O[C@H](CO)[C@@H](O)[C@H]3O)[nH]c(=O)c2n1.[Na] [Compound 21, sodium salt of 3-amino-7-(β-D-ribofuranosile)pyrazine[2,3-d]-6H-pyridazine-5,8-dione]
PATT, T [2, 3]: 37.1 ± 0.1 s
PATT, T [2, 4]: 37.2 ± 0.1 s
PATT, T [2, 5]: 36.9 ± 0.1 s
PATT, T [2, 6]: 37.0 ± 0.2 s
PATT, T [2, 7]: 32.8 ± 0.4 s
PATT, T [2, 8]: 32.0 ± 0.1 s
PATT, T [2, 9]: 32.2 ± 0.1 s
PATT, T [2, 10]: 32.1 ± 0.1 s
PATT, T [2, 11]: 32.0 ± 0.4 s
PATT, T [2, 12]: 32.1 ± 0.2 s
PATT, T [2, 13]: 32.0 ± 0.1 s
PATT, T [2, 14]: 32.3 ± 0.2 s
effect on the PATT [2]: do not affect the PATT

O=c1[nH]n([C@@H]2O[C@H](CO)[C@@H](O)[C@H]2O)c(=O)c2nc(O)cnc12.[Na].[Na] [Compound 23, disodium salt of 2-hydroxy-7-(β-D-ribofuranosile)pyrazine[2,3—Cl]-6H-pyridazine-5,8-dione]
Basophiles [1, 15]: 0%
Juveniles [1, 15]: 0%
Stab neutrophil ([1]; male rats, suppositories rectally, 50 mg/kg, 1 month, control 0.8 ± 0.4): 1.1 ± 0.5%
REE ([1]; male rats, suppositories rectally, 50 mg/kg, 1 month, control 2.2 ± 0.4): 1.7 ± 0.8 mm/h
Reticulocytes ([1]; male rats, suppositories rectally, 50 mg/kg, 1 month, control 2.8%0.3): 2.7 ± 0.3%
Eosinophiles ([1]; male rats, suppositories rectally, 50 mg/kg, 1 month, control 4.0 + 0.3): 3.6 ± 0.5%
Erythrocytes ([1]; male rats, suppositories rectally, 50 mg/kg, 1 month, control 5.6 ± 0.1): 5.7 ± 0.1 mln/mm^3
Hemoglobin ([1]; male rats, suppositories rectally, 50 mg/kg, 1 month, control 10.5 ± 0.2): 10.7 ± 0.1 mmol/L
Leukocyte ([1]; male rats, suppositories rectally, 50 mg/kg, 1 month, control 17.4 ± 1.3): 15.5 ± 1.1 thousand/mm^3
Haematocrite ([1]; male rats, suppositories rectally, 50 mg/kg, 1 month, control 45.9 ± 1.7): 47.7 ± 1.2%
Average volume of erythrocytes ([1]; male rats, suppositories rectally, 50 mg/kg, 1 month, control 81.4 ± 1.7): 82.7 ± 1.6 Mkm^3
Coagulation, time ([1]; male rats, suppositories rectally, 50 mg/kg, 1 month, control 152 ± 10.2): 150 ± 15 s
Thrombocytes ([1]; male rats, suppositories rectally, 50 mg/kg, 1 month, control 707 ± 23): 659 ± 18
REE ([1]; male rats, suppositories rectally, 50 mg/kg, 2 months, control 1.4 ± 0.2): 1.5 ± 0.1 mm/h
Stab neutrophil ([1]; male rats, suppositories rectally, 50 mg/kg, 2 months, control 2.4 ± 0.4): 1.6 ± 0.2%
Reticulocytes ([1]; male rats, suppositories rectally, 50 mg/kg, 2 months, control 2.9 ± 0.2): 2.8 ± 0.1%
Eosinophiles ([1]; male rats, suppositories rectally, 50 mg/kg, 2 months, control 4.4 + 1.2): 4.0 ± 0.7%
Erythrocytes ([1]; male rats, suppositories rectally, 50 mg/kg, 2 months, control 6.1 ± 0.1): 6.0 ± 0.2 mln/mm^3
Hemoglobin ([1]; male rats, suppositories rectally, 50 mg/kg, 2 months, control 11.4 ± 0.2): 11.0 ± 0.1 mmol/L
Leukocyte ([1]; male rats, suppositories rectally, 50 mg/kg, 2 months, control 19.1 ± 1.9): 17.6 ± 1.2 thousand/mm^3
Haematocrite ([1]; male rats, suppositories rectally, 50 mg/kg, 2 months, control 45.9 ± 1.8): 46.5 ± 1.3%
Average volume of erythrocytes ([1]; male rats, suppositories rectally, 50 mg/kg, 2 months, control 74.6 + 1.9): 77.5 ± 1.7 Mkm^3
Coagulation, time ([1]; male rats, suppositories rectally, 50 mg/kg, 2 months, control 316 ± 8): 313 ± 17 s
Thrombocytes ([1]; male rats, suppositories rectally, 50 mg/kg, 2 months, control 593 ± 14): 586 ± 28
Basophiles [1, 16]: 0%
Juveniles [1, 16]: 0%
Stab neutrophil ([1]; male rats, suppositories rectally, 500 mg/kg, 1 month, control 0.8 ± 0.4): 1.0 ± 0.3%
REE ([1]; male rats, suppositories rectally, 500 mg/kg, 1 month, control 2.2 ± 0.4): 2.0 ± 0.3 mm/h
Reticulocytes ([1]; male rats, suppositories rectally, 500 mg/kg, 1 month, control 2.8%0.3): 3.1 ± 0.1%
Eosinophiles ([1]; male rats, suppositories rectally, 500 mg/kg, 1 month, control 4.0 + 0.3): 3.3 ± 0.7%
Erythrocytes ([1]; male rats, suppositories rectally, 500 mg/kg, 1 month, control 5.6 ± 0.1): 5.7 ± 0.2 mln/mm^3
Hemoglobin ([1]; male rats, suppositories rectally, 500 mg/kg, 1 month, control 10.5 ± 0.2): 10.7 ± 0.2 mmol/L
Leukocyte ([1]; male rats, suppositories rectally, 500 mg/kg, 1 month, control 17.4 ± 1.3): 16.4 ± 1.1 thousand/mm^3
Haematocrite ([1]; male rats, suppositories rectally, 500 mg/kg, 1 month, control 45.9 ± 1.7): 47.9 ± 1.1%
Average volume of erythrocytes ([1]; male rats, suppositories rectally, 500 mg/kg, 1 month, control 81.4 ± 1.7): 83.5 ± 1.7 Mkm^3
Coagulation, time ([1]; male rats, suppositories rectally, 500 mg/kg, 1 month, control 152 ± 10.2): 156 ± 11 s
Thrombocytes ([1]; male rats, suppositories rectally, 500 mg/kg, 1 month, control 707 ± 23): 678 ± 18
REE ([1]; male rats, suppositories rectally, 500 mg/kg, 2 months, control 1.4 ± 0.2): 1.7 ± 0.3 mm/h
Stab neutrophil ([1]; male rats, suppositories rectally, 500 mg/kg, 2 months, control 2.4 ± 0.4): 1.6 ± 0.2%
Reticulocytes ([1]; male rats, suppositories rectally, 500 mg/kg, 2 months, control 2.9 ± 0.2): 3.4 ± 0.1%
Eosinophiles ([1]; male rats, suppositories rectally, 500 mg/kg, 2 months, control 4.4 + 1.2): 3.8 ± 1.3%
Erythrocytes ([1]; male rats, suppositories rectally, 500 mg/kg, 2 months, control 6.1 ± 0.1): 6.4 ± 0.2 mln/mm^3
Hemoglobin ([1]; male rats, suppositories rectally, 500 mg/kg, 2 months, control 11.4 ± 0.2): 12.3 ± 0.3 mmol/L
Leukocyte ([1]; male rats, suppositories rectally, 500 mg/kg, 2 months, control 19.1 ± 1.9): 20.1 ± 1.7 thousand/mm^3
Haematocrite ([1]; male rats, suppositories rectally, 500 mg/kg, 2 months, control 45.9 ± 1.8): 49.4 ± 1.9%
Average volume of erythrocytes ([1]; male rats, suppositories rectally, 500 mg/kg, 2 months, control 74.6 + 1.9): 82.1 ± 1.4 Mkm^3
Coagulation, time ([1]; male rats, suppositories rectally, 500 mg/kg, 2 months, control 316 ± 8): 3171 ± 12 s
Thrombocytes ([1]; male rats, suppositories rectally, 500 mg/kg, 2 months, control 593 ± 14): 628 ± 23
